For data set [1] the following is noted: cited from earlier work; for Classification (dissociation) / Dissociation Constant - Pka: triazole fungicides, Table 01; for ionization: strobirulins, Table 2.
The conditions of data set [2]: cited from earlier work; for Log Know (P Log) / Know P: triazole fungicides, Table 01; for Know or P / Log Know or Log P: strobirulins, Table 2.
Data set [3] in a line: Eiq risk indicator of pesticides (Kovach et al.; Eiq Calculator). Particulars: for Total Eiq (% of picoxystrobin): as percentage of the picoxystrobin value. The protocol: With all this complexity, the question that arises is: is there any risk indicator for the use of pesticides that is accurate, simple to use and easily understandable? So far, the best available option is the Eiq proposed by Kovach et al. (1992).
This indicator is calculated from a total of […] characteristics of pesticides: dermal toxicity, chronic toxicity, systemicity, toxicity to fish, leaching potential, potential for movement on the soil surface, toxicity to birds, time to degrade 50% in soil, toxicity to bees, toxicity to beneficial arthropods and time to degrade 50% on plant surface.
The total Eiq is characteristic of each active ingredient and corresponds to the average of three other more specific coefficients calculated from subgroups of the aforementioned characteristics: Eiq Ecological, Eiq for the worker and Eiq for the consumer.
The Eiq values are dimensionless and can be determined for 1 kg of the active ingredient (to compare the safety of different compounds) or per hectare treated (considers the variable effective dose of use). There are applications that do the calculation automatically such as Eiq Calculator (Cornell—CALS, 2018).

For data set [4] the following is noted: cited from earlier work; for Solubility in water: triazole fungicides, Table 01; for Solubility-water: strobirulins, Table 2.
The conditions of data set [5]: cited from earlier work; for Consumer Eiq / Ecological Eiq / Total Eiq / Worker Eiq: for 1 kg of the compound; for Total Equi: per kg of compound, Table 2.
Data set [6] concerns complex of diseases in soybean. In words: LD50 of strobilurins, populations of different locations and dates of collection. Particulars: mean over locations and dates of collection. The protocol:
Additional tests were conducted with populations with extreme values to verify the correlation of ED50 values with field efficiency and confirm this elevation in values. The same tests were installed in order to compare the most used strobilurins in soybean crops.
All estimated LD50 values were below 1 μg. mL−1, regardless of product, location and date of collection.
That said, it can be stated that the combination of triazole with greater intrinsic activity to strobilurin with the same characteristics makes OFA-T 0143/17 (prothioconazole+picoxystrobin) an excellent tool to assist in the integrated management of diseases in the soybean crop.

The conditions of data set [7]: strobirulins, Table 2; cited from earlier work.

The structures appear in SMILES notation. Read-outs that look alike come from different tables or passages of the source.

On to `Fc1ccc([C@]2(Cn3cncn3)O[C@H]2c2ccccc2Cl)cc1` (racemic) [epoxiconazole], for which, in data set [1], the “Classification (dissociation)” value was “No dissociation”. In addition, the “Log Know (P Log)” value in data set [2] is listed as 3.3.
`OC(Cc1ccccc1Cl)(Cn1nc[nH]c1=S)C1(Cl)CC1` (racemic) [prothioconazole, (RS)-2-[2-(1-chlorocyclopropyl)-3-(2-chlorophenyl)-2-hydroxypropyl]-2,4-dihydro1,2,4-triazole-3-thione]: in data set [3] (dose of 96 g a.i./ha), the “Consumer Eiq” value was 1.008, the “Ecological Eiq” value is listed as 5.33, the “Total Eiq” value is reported as 2.58 and the “Worker Eiq” value is 1.33. Moreover, in data set [4], the Solubility in water is on record as 22.5 mg/L or PPM. Also, in data set [1], the “Classification (dissociation)” value is recorded as “Weak acid” and the “Dissociation Constant - Pka” value is given as 6.9. Moreover, in data set [2], the “Know P” value is on record as 100 and the “Log Know (P Log)” value is on record as 2. Besides, in data set [5], the “Consumer Eiq” value is listed as 10.5, the “Ecological Eiq” value is reported as 55.5, the “Total Eiq” value was 26.9 and the “Worker Eiq” value was 13.9.
Take `Clc1ccc(C2(Cn3cncn3)OCCO2)c(Cl)c1` [azaconazole]: in data set [4], the Solubility in water was 300 mg/L or PPM. Moreover, in data set [1], the “Classification (dissociation)” value is “Very weak base” and the “Dissociation Constant - Pka” value is on record as 3. Further, in data set [2], the “Know P” value is reported as 229.1 and the “Log Know (P Log)” value is on record as 2.36.
Turning to `CO/C=C(/C(=O)OC)c1ccccc1Oc1cc(Oc2ccccc2C#N)ncn1` [azoxystrobin], in data set [6], the LD50 mean was found to be 0.23 µg/mL. Further, the “Total Eiq (% of picoxystrobin)” value in data set [3] (Units/Kg) is 196.6%. In data set [3] (Units/Mol), the “Total Eiq (% of picoxystrobin)” value is 215.7%. Besides, the “Total Eiq” value in data set [3] (per Mol of compound, Table 2) was 9.3 Units/Mol. Moreover, the Solubility-water in data set [4] is 6.7 mg/L or PPM. Moreover, the ionization entry in data set [1] is recorded as “Non-ionizable”. In data set [2], the “Know or P” value is listed as 316 dimensionless and the “Log Know or Log P” value is reported as 2.5 dimensionless. In addition, in data set [7], the RL50 in plants was 7.0 days. The “Total Equi” value in data set [5] is on record as 23.0 Units/Kg.
For `Clc1ccc(C2(Cn3cncn3)CC(Br)CO2)c(Cl)c1` (stereo not drawn) [bromuconazole], the Solubility in water in data set [4] is recorded as 48.3 mg/L or PPM. Moreover, in data set [1], the “Classification (dissociation)” value is “Strong acid” and the “Dissociation Constant - Pka” value was 2.75. The “Log Know (P Log)” value in data set [2] is listed as 3.24.
In the case of `CC(C1CC1)C(O)(Cn1cncn1)c1ccc(Cl)cc1` (stereo not drawn) [cyproconazole], in data set [1], the “Classification (dissociation)” value is recorded as “No dissociation”. Moreover, the “Log Know (P Log)” value in data set [2] is 3.09.
As for `CC1COC(Cn2cncn2)(c2ccc(Oc3ccc(Cl)cc3)cc2Cl)O1` (stereo not drawn) [diphenococonazole], in data set [1], the “Classification (dissociation)” value is “Strong acid” and the “Dissociation Constant - Pka” value was 1.07. Further, the “Log Know (P Log)” value in data set [2] is reported as 4.36.
For the molecule `N#CC(CCc1ccc(Cl)cc1)(Cn1cncn1)c1ccccc1` (stereo not drawn) [fenbuconazole], the Solubility in water in data set [4] is 2.47 mg/L or PPM. The “Classification (dissociation)” value in data set [1] is given as “No dissociation”. Also, the “Log Know (P Log)” value in data set [2] was 3.79.
In the case of `O=c1c2cc(F)ccc2nc(-n2cncn2)n1-c1ccc(Cl)cc1Cl` [fluquinconazole], in data set [1], the “Classification (dissociation)” value is on record as “Strong acid” and the “Dissociation Constant - Pka” value is recorded as 0.9. The “Log Know (P Log)” value in data set [2] is reported as 3.24.
`CCCCC(O)(Cn1cncn1)c1ccc(Cl)cc1Cl` (stereo not drawn) [hexaconazole]: in data set [1], the “Classification (dissociation)” value is recorded as “Strong acid”. The “Log Know (P Log)” value in data set [2] is given as 3.9.
With `CC1(C)CCC(Cc2ccc(Cl)cc2)C1(O)Cn1cncn1` (stereo not drawn) [metconazole], in data set [1], the “Classification (dissociation)” value is recorded as “Very weak acid”. In addition, in data set [2], the “Log Know (P Log)” value is given as 3.85.
Consider `CCCC(Cn1cncn1)c1ccc(Cl)cc1Cl` (stereo not drawn) [penconazole], for which, in data set [1], the “Classification (dissociation)” value is on record as “Very weak base” and the “Dissociation Constant - Pka” value was 1.51.
In the case of `CO/C=C(/C(=O)OC)c1ccccc1COc1cccc(C(F)(F)F)n1` [picoxystrobin, (E)-3-methoxy-2-{2-[6-(trifluoromethyl)-2-pyridyloxymethyl]phenyl}methyl acrylate], the LD50 mean in data set [6] amounted to 0.18 µg/mL. Moreover, the “Total Eiq (% of picoxystrobin)” value in data set [3] (Units/Kg) is recorded as 100.0%. Moreover, in data set [3] (Units/Mol), the “Total Eiq (% of picoxystrobin)” value was 100.0%. In data set [3] (dose of 80g a.i./ha), the “Consumer Eiq” value was 0.408, the “Ecological Eiq” value is listed as 2.00, the “Total Eiq” value is listed as 0.936 and the “Worker Eiq” value is given as 0.408. The “Total Eiq” value in data set [3] (per Mol of compound, Table 2) is on record as 4.3 Units/Mol. In addition, in data set [3] (per kg), the “average reduction of risks for consumers, workers and the environment versus azoxystrobin” value is 49.13%; the “average reduction of risks for consumers, workers and the environment versus pyraclostrobin” value is 49.35%; the “average reduction of risks for consumers, workers and the environment versus trifloxystrobin” value is on record as 54.12%; the “total Eiq value expressed as a percentage of the value observed for azoxystrobin” value is listed as 50.87%. In data set [3] (per kg), the “total Eiq value expressed as a percentage of the value observed for pyraclostrobin” value is listed as 50.65% and the “total Eiq value expressed as a percentage of the value observed for trifloxystrobin” value is on record as 45.88%. For the same molecule, the Solubility-water in data set [4] is 3.1 mg/L or PPM. In data set [1], the ionization result is “Non-ionizable”. Also, in data set [2], the “Know or P” value is 3981 dimensionless and the “Log Know or Log P” value is reported as 3.6 dimensionless. Further, the RL50 in plants in data set [7] is 6.9 days. Further, in data set [5], the “Consumer Eiq” value is reported as 5.1, the “Ecological Eiq” value is 25.0, the “Total Eiq” value is 11.7 and the “Worker Eiq” value was 5.1. For the same molecule, the “Total Equi” value in data set [5] is 11.7 Units/Kg.
Regarding `CCCC1COC(Cn2cncn2)(c2ccc(Cl)cc2Cl)O1` (stereo not drawn) [propiconazole], the Solubility in water in data set [4] is 150 mg/L or PPM. In data set [1], the “Classification (dissociation)” value is “Very weak base” and the “Dissociation Constant - Pka” value is 1.09. The “Log Know (P Log)” value in data set [2] is given as 3.72.
Take `COC(=O)N(OC)c1ccccc1COc1ccn(-c2ccc(Cl)cc2)n1` [pyraclostrobin]: the LD50 mean in data set [6] amounted to 0.21 µg/mL. Besides, the “Total Eiq (% of picoxystrobin)” value in data set [3] (Units/Kg) is 197.4%; in data set [3] (Units/Mol), 208.5%. Further, the “Total Eiq” value in data set [3] (per Mol of compound, Table 2) is reported as 9.0 Units/Mol. The Solubility-water in data set [4] is 1.5 mg/L or PPM. Moreover, the ionization entry in data set [1] was “Non-ionizable”. Also, the “Know or P” value in data set [2] is 9772 dimensionless. In addition, in data set [7], the RL50 in plants is 4.7 days. Besides, the “Total Equi” value in data set [5] is on record as 23.1 Units/Kg.
As to `CC(C)(C)C(O)(CCc1ccc(Cl)cc1)Cn1cncn1` (stereo not drawn) [tebuconazole], the “Classification (dissociation)” value in data set [1] is reported as “Weak acid”. In data set [2], the “Log Know (P Log)” value is listed as 3.7.
For the molecule `FC(F)C(F)(F)OCC(Cn1cncn1)c1ccc(Cl)cc1Cl` (stereo not drawn) [tetraconazole], the “Classification (dissociation)” value in data set [1] is recorded as “Strong acid”. In addition, the “Log Know (P Log)” value in data set [2] is 3.56.
Consider `CON=C(C(=O)OC)c1ccccc1CON=C(C)c1cccc(C(F)(F)F)c1` [trifloxystrobin], for which the “Total Equi” value in data set [3] is 10.4 Units/Mol. In data set [3] (14 days), the “more Eiq units required so that 10 g of the compound remained in the plant matrix, versus picoxystrobin” value is 35.54%. The ionization result in data set [1] is reported as “Non-ionizable”. Besides, the “Know or P” value in data set [2] is 31623 dimensionless.
As for `CC1(C)CCC(=Cc2ccc(Cl)cc2)C1(O)Cn1cncn1` (stereo not drawn) [triticonazole], in data set [1], the “Classification (dissociation)” value is reported as “No dissociation”. For the same molecule, the “Log Know (P Log)” value in data set [2] was 3.29.
For the molecule `CC(C)(C)C(O)/C(=C\c1ccc(Cl)cc1)n1cncn1` (stereo not drawn) [uniconazole], in data set [4], the Solubility in water was 8.41 mg/L or PPM. Also, in data set [1], the “Classification (dissociation)” value is listed as “Very weak acid” and the “Dissociation Constant - Pka” value is 13.07. Besides, the “Log Know (P Log)” value in data set [2] is 3.84.

The values above are taken from patent publication US20240032539A1, “CONCENTRATED FUNGICIDE COMPOSITION OF PROTHIOCONAZOLE AND PICOXYTROBIN” (priority 2020, published 2024).
